In ChEMBL document CHEMBL1158788, “Cytotoxic constituents of the fruit body of Daedalea dickisii” (J Nat Prod, 2005):
Calls of active or inactive are those of the source. No cut-off for these calls is given here.

Assays:
Assay type in all cases: functional, cell-based
HCT-15 = assay: Cytotoxicity against human HCT15 cells after 48 hrs by MTT assay; details: HCT-15, 48 h
HL-60 [1] = assay: Cytotoxicity against human HL60 cells after 24 hrs by MTT assay; details: HL-60, 24 h
HL-60 [2] = assay: Induction of apoptosis in human HL60 cells assessed as DNA fragmentation at 35 uM after 8 hrs

| Compound | IC50 (HCT-15) | IC50 (HL-60 [1]) | Activity (HL-60 [2]) |
| --- | --- | --- | --- |
| CC(C(=O)O)[C@@H](C)C(=O)C[C@@H](C)[C@H]1CC[C@@]2(C)C3=C(CC[C@]12C)[C@@]1(C)CC[C@@H](OC(=O)CC(=O)O)C(C)(C)[C@@H]1CC3 (some centres not stated) [CARBOXYACETYLQUERCINIC ACID] | 155 µM | 45.2 µM |  |
| C=C(CC[C@@H](C(=O)O)[C@H]1[C@H](O)C[C@@]2(C)c3ccc(C)c(CCC(=O)C(C)C)c3CC[C@]12C)C(C)C [DAEDALEANIC ACID A] | 206 µM | 36 µM |  |
| C=C(CC[C@@H](C(=O)O[C@@H]1O[C@H](CO)[C@@H](O)[C@H](O)[C@H]1O)[C@H]1[C@H](OC(C)=O)C[C@@]2(C)C3=CC[C@H]4C(C)(C)C(=O)CC[C@]4(C)C3=CC[C@]12C)C(C)C [DAEDALEASIDE B] | 55 µM | 9.4 µM | Active |
| C=C(CC[C@@H](C(=O)O[C@@H]1O[C@H](COC(C)=O)[C@@H](O)[C@H](O)[C@H]1O)[C@H]1[C@H](OC(C)=O)C[C@@]2(C)C3=CC[C@H]4C(C)(C)C(=O)CC[C@]4(C)C3=CC[C@]12C)C(C)C [DAEDALEASIDE C] |  | 12 µM | Active |
| C=C(CC[C@@H](C(=O)O[C@@H]1O[C@H](CO)[C@@H](O)[C@H](O)[C@H]1O)[C@H]1[C@H](OC(C)=O)C[C@@]2(C)C3=C(CC[C@]12C)[C@@]1(C)CCC(=O)C(C)(C)[C@@H]1CC3)C(C)C [DAEDALEASIDE D] | 60 µM | 14 µM | Active |
| C=C(CC[C@@H](C(=O)O[C@@H]1O[C@H](COC(C)=O)[C@@H](O)[C@H](O)[C@H]1O)[C@H]1[C@H](OC(C)=O)C[C@@]2(C)C3=C(CC[C@]12C)[C@@]1(C)CCC(=O)C(C)(C)[C@@H]1CC3)C(C)C [DAEDALEASIDE E] |  | 15 µM | Active |
| C=C(CC[C@@H](C(=O)O[C@@H]1O[C@H](CO)[C@@H](O)[C@H](O)[C@H]1O)[C@H]1[C@H](OC(C)=O)C[C@@]2(C)c3ccc(C)c(CCC(=O)C(C)C)c3CC[C@]12C)C(C)C [DAEDALEASIDES A] | 32.3 µM | 27.9 µM |  |
| COc1cc([C@@H]2c3cc4c(cc3[C@@H](O[C@@H]3O[C@@H]5CO[C@@H](C)O[C@H]5[C@H](O)[C@H]3O)[C@H]3COC(=O)[C@H]23)OCO4)cc(OC)c1O [ETOPOSIDE] |  | 25 µM |  |
